Laboratory results: patent publication US8772509B2, “Indole compounds as positive allosteric modulators of the muscarinic receptor” (Vanderbilt University, priority 2010, dated 2014)

Target: T1, mAChR M1 (UniProt P08482)
T1 sequence (P08482 1-460): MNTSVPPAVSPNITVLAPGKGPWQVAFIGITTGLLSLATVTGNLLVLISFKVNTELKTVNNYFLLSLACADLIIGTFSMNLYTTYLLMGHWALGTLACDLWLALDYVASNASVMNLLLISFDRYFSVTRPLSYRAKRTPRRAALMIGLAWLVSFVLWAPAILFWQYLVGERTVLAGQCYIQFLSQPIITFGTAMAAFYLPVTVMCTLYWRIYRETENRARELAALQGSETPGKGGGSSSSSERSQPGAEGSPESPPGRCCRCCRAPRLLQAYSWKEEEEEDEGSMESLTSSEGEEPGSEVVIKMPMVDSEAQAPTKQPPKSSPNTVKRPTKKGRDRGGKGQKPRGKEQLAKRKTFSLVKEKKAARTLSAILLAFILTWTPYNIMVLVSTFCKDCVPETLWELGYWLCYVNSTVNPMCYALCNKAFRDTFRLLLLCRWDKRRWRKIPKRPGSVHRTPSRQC
Experiment: mAChR M1 cell-based functional assay (calcium mobilization, Fluo-4, FDSS)
Conditions: for Efficacy (% ACh maximum at 30 μM): maximal calcium flux response from curve fit or response at 30 μM compound, as % of the EC80 ACh response; for EC50: positive allosteric modulation of EC20 acetylcholine response, CHO-K1 cells expressing mAChR M1, read-out: Potency (EC50)
Protocol: Chinese hamster ovary (CHO-K1) cells stably expressing rat (r)M1 were purchased from the American Type Culture Collection and cultured according to their indicated protocol. […] To make stable rM2, hM2, rM3, hM4, and rM4 cell lines for use in calcium mobilization assays, these cells also were stably transfected with a chimeric G-protein (Gqi5) (provided by B. R. Conklin, University of California, San Francisco) using Lipofectamine 2000. rM1, hM1, rM3, hM3, rM5, and hM5 cells were grown in Ham's F-12 medium containing 10% heat-inactivated fetal bovine serum (FBS), 20 mM HEPES, and 50 μg/mL G418 sulfate. rM2-Gqi5, hM2-Gqi5, and hM4-Gqi5 cells were grown in the same medium also containing 500 μg/mL Hygromycin B. Stable rM4-Gqi5 cells were grown in DMEM containing 10% heat-inactivated FBS, 20 mM HEPES, 400 μg/mL G418 sulfate, and 500 μg/mL Hygromycin B.
For high throughput measurement of agonist-evoked increases in intracellular calcium, CHO-K1 cells stably expressing muscarinic receptors were plated in growth medium lacking G418 and hygromycin at 15,000 cells/20 μL/well in Greiner 384-well black-walled, tissue culture (TC)-treated, clear-bottom plates (VWR). Cells were incubated overnight at 37° C. and 5% CO2. […] Compound master plates were formatted in an 11 point CRC format (1:3 dilutions) in 100% DMSO with a starting concentration of 10 mM using the BRAVO liquid handler (Agilent). Test compound CRCs were then transferred to daughter plates (240 nL) using the Echo acoustic plate reformatter (Labcyte, Sunnyvale, Calif.) and then diluted into assay buffer (40 μL) to a 2× stock using a Thermo Fisher Combi (Thermo Fisher Scientific, Waltham, Mass.).
Calcium flux was measured using the Functional Drug Screening System (FDSS) 6000 (Hamamatsu Corporation, Tokyo, Japan) as an increase in the fluorescent static ratio. Compounds were applied to cells (20 μL, 2×) using the automated system of the FDSS 6000 at 4 s into the 300 s protocol and the data were collected at 1 Hz. […] Agonist activity was analyzed as a concentration-dependent increase in calcium mobilization upon compound addition. Positive allosteric modulator activity was analyzed as a concentration-dependent increase in the EC20 acetylcholine response. Antagonist activity was analyzed as a concentration-dependent decrease in the EC80 acetylcholine response. Concentration-response curves were generated using a four-parameter logistical equation in XLfit curve fitting software (IDBS, Bridgewater, N.J.) for Excel (Microsoft, Redmond, Wash.) or Prism (GraphPad Software, Inc., San Diego, Calif.).
The calcium mobilization assay was also used to determine “efficacy”. In the context of the assays carried out for the data in Table I, “efficacy” (% ACh at 30 μM) is defined as the maximal response in the calcium flux as determined by the sigmoidal curve fit of the concentration response curve, or in the absence of an acceptable curve fit, the response recorded at 30 μM test compound, stated as a percentage of the response elicited by a concentration of Ach that induces approximately 80% of a maximal (i.e. saturating) ACh response.

Structure (SMILES) | Efficacy (% ACh maximum at 30 μM) [%] | EC50 [µM]
Cc1cc(NC(=O)CS(=O)(=O)c2cn(Cc3cccc(Cl)c3)c3ccccc23)no1 [compound 32, 2-((1-(3-chlorobenzyl)-1H-indol-3-yl)sulfonyl)-N-(5-methylisoxazol-3-yl)acetamide] | 96 | 5.82
Cc1cc(NC(=O)CS(=O)(=O)c2cn(Cc3cccc(Br)c3F)c3ccccc23)no1 [compound 62, 2-{1-[(3-bromo-2-fluorophenyl)methyl]-1H-indole-3-sulfonyl}-N-(5-methyl-1,2-oxazol-3-yl)acetamide] | – | > 10
Cc1cc(NC(=O)CS(=O)(=O)c2cn(Cc3ccc(F)nc3)c3ccccc23)no1 [compound 44, 2-{1-[(6-fluoropyridin-3-yl)methyl]-1H-indole-3-sulfonyl}-N-(5-methyl-1,2-oxazol-3-yl)acetamide] | – | > 10
Cc1cc(NC(=O)CS(=O)(=O)c2cn(Cc3ccc(OC(F)(F)F)cc3)c3ccccc23)no1 [compound 57, N-(5-methyl-1,2-oxazol-3-yl)-2-(1-{[4-(trifluoromethoxy)phenyl]methyl}-1H-indole-3-sulfonyl)acetamide] | – | > 10
Cc1cc(NC(=O)CS(=O)(=O)c2cn(Cc3cccc(-c4ccc(Cl)nc4)c3)c3ccccc23)no1 [compound 64, 2-(1-{[3-(6-chloropyridin-3-yl)phenyl]methyl}-1H-indole-3-sulfonyl)-N-(5-methyl-1,2-oxazol-3-yl)acetamide] | – | > 10
Cc1cc(NC(=O)CS(=O)(=O)c2cn(Cc3cccc(C#N)c3)c3ccccc23)no1 [compound 45, 2-{1-[(3-cyanophenyl)methyl]-1H-indole-3-sulfonyl}-N-(5-methyl-1,2-oxazol-3-yl)acetamide] | – | > 10
Cc1cc(NC(=O)C[S+]([O-])c2cn(Cc3cccc(Cl)c3)c3ccccc23)no1 (centres unmarked) [compound 29, 2-((1-(3-chlorobenzyl)-1H-indol-3-yl)sulfinyl)-N-(5-methylisoxazol-3-yl)acetamide] | 93 | 5.23
Cc1cc(NC(=O)CS(=O)(=O)c2cn(Cc3cccc(-c4ccc(N5CCNCC5)nc4)c3)c3ccccc23)no1 [compound 70, N-(5-methyl-1,2-oxazol-3-yl)-2-[1-({3-[6-(piperazin-1-yl)pyridin-3-yl]phenyl}methyl)-1H-indole-3-sulfonyl]acetamide] | – | > 10
Cc1cc(NC(=O)CS(=O)(=O)c2cn(Cc3ccccc3F)c3ccccc23)no1 [compound 43, 2-{1-[(2-fluorophenyl)methyl]-1H-indole-3-sulfonyl}-N-(5-methyl-1,2-oxazol-3-yl)acetamide] | – | > 10
Cc1cc(NC(=O)CS(=O)(=O)c2cn(Cc3cccc(-c4ccc(N5CCCC5)nc4)c3)c3ccccc23)no1 [compound 67, N-(5-methyl-1,2-oxazol-3-yl)-2-[1-({3-[6-(pyrrolidin-1-yl)pyridin-3-yl]phenyl}methyl)-1H-indole-3-sulfonyl]acetamide] | – | > 10
Cc1cc(NC(=O)CS(=O)(=O)c2cn(Cc3cccc(-c4cc[nH]n4)c3F)c3ccccc23)no1 [compound 23, 2-((1-(2-fluoro-3-(1H-pyrazol-3-yl)benzyl)-1H-indol-3-yl)sulfonyl)-N-(5-methylisoxazol-3-yl)acetamide] | 103 | 4.4
Cc1cc(NC(=O)C(Cc2ccccc2F)S(=O)(=O)c2cn(Cc3ccccc3F)c3ccccc23)no1 (centres unmarked) [compound 66, 3-(2-fluorophenyl)-2-{1-[(2-fluorophenyl)methyl]-1H-indole-3-sulfonyl}-N-(5-methyl-1,2-oxazol-3-yl)propanamide] | – | > 10
Cc1cc(NC(=O)CS(=O)(=O)c2cn(Cc3ccc4c(c3)OCO4)c3ccccc23)no1 [compound 50, 2-[1-(2H-1,3-benzodioxol-5-ylmethyl)-1H-indole-3-sulfonyl]-N-(5-methyl-1,2-oxazol-3-yl)acetamide] | – | > 10
Cc1cc(NC(=O)CS(=O)(=O)c2cn(Cc3cccc(Cl)c3F)c3ccccc23)no1 [compound 26, 2-((1-(3-chloro-2-fluorobenzyl)-1H-indol-3-yl)sulfonyl)-N-(5-methylisoxazol-3-yl)acetamide] | 56 | 5.1
Cc1cc(NC(=O)CS(=O)(=O)c2cn(Cc3cccc(-c4cnn(CC(C)C)c4)c3)c3ccccc23)no1 [compound 65, N-(5-methyl-1,2-oxazol-3-yl)-2-[1-({3-[1-(2-methylpropyl)-1H-pyrazol-4-yl]phenyl}methyl)-1H-indole-3-sulfonyl]acetamide] | – | > 10

Now from value to molecule:

Efficacy (% ACh maximum at 30 μM) [%] | EC50 [µM] | Structure (SMILES)
49 | > 10 | O=C(CS(=O)(=O)c1cn(Cc2cccc(Br)c2)c2cc(F)cc(F)c12)Nc1cncs1 [compound 38, 2-((1-(3-bromobenzyl)-4,6-difluoro-1H-indol-3-yl)sulfonyl)-N-(thiazol-5-yl)acetamide]
53 | 2.8 | [N-]=[N+]=Nc1cccc(Cn2cc(S(=O)(=O)CC(=O)Nc3ccccn3)c3c(F)cc(F)cc32)c1 [compound 13, 2-((1-(3-azidobenzyl)-4,6-difluoro-1H-indol-3-yl)sulfonyl)-N-(pyridin-2-yl)acetamide]
42 | 3.4 | Cc1noc(C)c1-c1cccc(Cn2cc(S(=O)(=O)CC(=O)Nc3ccccn3)c3c(F)cc(F)cc32)c1 [compound 17, 2-((1-(3-(3,5-dimethylisoxazol-4-yl)benzyl)-4,6-difluoro-1H-indol-3-yl)sulfonyl)-N-(pyridin-2-yl)acetamide]
67 | 2.6 | O=C(CS(=O)(=O)c1cn(Cc2cccc(-n3ccnn3)c2)c2cc(F)cc(F)c12)Nc1ccccn1 [compound 10, 2-((1-(3-(1H-1,2,3-triazol-1-yl)benzyl)-4,6-difluoro-1H-indol-3-yl)sulfonyl)-N-(pyridn-2-yl)acetamide]
68 | 2.4 | Cc1cc(NC(=O)CS(=O)(=O)c2cn(Cc3cccc(-c4cccnc4)c3)c3cc(F)cc(F)c23)no1 [compound 8, 2-((4,6-difluoro-1-(3-(pyridin-3-yl)benzyl)-1H-indol-3-yl)sulfonyl)-N-(5-methylisoxazol-3-yl)acetamide]
37 | > 10 | COc1ncccc1-c1cccc(Cn2cc(S(=O)(=O)CC(=O)Nc3ccccn3)c3c(F)cc(F)cc32)c1 [compound 40, 2-((4,6-difluoro-1-(3-(2-methoxypyridin-3-yl)benzyl)-1H-indol-3-yl)sulfonyl)-N-(pyridin-2-yl)acetamide]
42 | 3.3 | COc1ccc(-c2cccc(Cn3cc(S(=O)(=O)CC(=O)Nc4ccccn4)c4c(F)cc(F)cc43)c2)cn1 [compound 16, 2-((4,6-difluoro-1-(3-(6-methoxypyridin-3-yl)benzyl)-1H-indol-3-yl)sulfonyl)-N-(pyridin-2-yl)acetamide]
38 | 4.4 | O=C(CS(=O)(=O)c1cn(Cc2cccc(-c3cccnc3F)c2)c2cc(F)cc(F)c12)Nc1ccccn1 [compound 24, 2-((4,6-difluoro-1-(3-(2-fluoropyridin-3-yl)benzyl)-1H-indol-3-yl)sulfonyl)-N-(pyridin-2-yl)acetamide]
